Tests used:
[1] = test system: Kidney longevity gene expression signature; assay: Compounds that shift gene expression in the direction of longevity (Table 6), kidney
Excerpt: (§1) The methods, assays, and systems described herein can be useful in a number of areas, including the discovery and validation of new targets for reducing rate of aging, extending lifespan, reducing incidence and delaying onset of disease and improving overall health of aging populations. Furthermore, the invention can facilitate the discovery and development of drugs, biologicals and treatment regimens based on the above that favorably intervene in the aging process. For example, the gene expression signatures described herein can be used to choose target gene products in a therapeutic protocol, to elaborate the biological function of the target gene product in the aging process, and to identify compounds that alleviate deterioration associated with aging by modulating the activity of target gene products. For example, several compounds that shift gene expression in the direction of longevity have been identified or validated using the assays or methods described herein (Table 6).
(§2) In Table 6, several compounds that shift gene expression in the direction of longevity have been identified or validated.

[2] = test system: Liver longevity gene expression signature; assay: Compounds that shift gene expression in the direction of longevity (Table 6), liver
Excerpt: as §1, §2

[3] = test system: Brain longevity gene expression signature; assay: Compounds that shift gene expression in the direction of longevity (Table 6), brain
Excerpt: as §1, §2

mice = conditions: elevated growth hormone treatment during development (Panici et al., 2010); cited from earlier work

Compound	Direction of lifespan associated with the compound's shift of gene expression (Increased lifespan / Decreased lifespan) [2]	Direction of lifespan associated with the compound's shift of gene expression (Increased lifespan / Decreased lifespan) [3]	further results
CCCCC/C=C/C=C1/C(=O)C=C[C@@H]1C/C=C\CCCC(=O)O [15Δ prostaglandin J2]	Decreased	Decreased	Direction of lifespan associated with the compound's shift of gene expression (Increased lifespan / Decreased lifespan) [1]: Decreased
CO[C@H]1/C=C\C=C(/C)C(=O)NC2=CC(=O)C(NCCN(C)C)=C(C[C@@H](C)C[C@H](OC)[C@H](O)[C@@H](C)/C=C(\C)[C@@H]1OC(N)=O)C2=O [Alvespimycin]	–	Decreased	–
NC12CC3CC(CC(C3)C1)C2 [Amantadine]	–	Increased	–
CN(C)CCOC(C)(c1ccccc1)c1ccccn1 (centres unmarked) [Doxylamine]	Decreased	–	–
C[C@H]1O[C@@H](O[C@H]2CC[C@]3(C=O)[C@H]4CC[C@]5(C)[C@@H](C6=CC(=O)OC6)CC[C@]5(O)[C@@H]4CC[C@]3(O)C2)C[C@H](O)[C@@H]1O [Helveticoside]	Increased	–	–
CCc1c2c(nc3ccc(OC(=O)N4CCC(N5CCCCC5)CC4)cc13)-c1cc3c(c(=O)n1C2)COC(=O)[C@]3(O)CC [Irinotecan]	–	Increased	Direction of lifespan associated with the compound's shift of gene expression (Increased lifespan / Decreased lifespan) [1]: Increased
O[C@H]1[C@H]2c3cc4c(cc3CN3CCC(=C[C@@H]1O)[C@H]23)OCO4 [Lycorine]	–	–	Direction of lifespan associated with the compound's shift of gene expression (Increased lifespan / Decreased lifespan) [1]: Decreased
C[C@@H]1C[C@H]2O[C@@H]2/C=C\C=C\C(=O)Cc2c(Cl)c(O)cc(O)c2C(=O)O1 [Monorden]	Decreased	–	–
Oc1ccc(C=Cc2cc(O)cc(O)c2)cc1 [Resveratrol]	Increased	–	–
Artemizole	Increased	–	–
growth hormone	–	–	Effect on lifespan (mice): shortens lifespan
